Measurements published in ChEMBL document CHEMBL1201861, “Genomics of Drug Sensitity in Cancer screening data, Wellcome Trust Sanger Institute”.

Assays:
Experiment in all cases: cells
[1] = tested on: U2OS; format: functional, cell-based, Homo sapiens, U-2-OS; conditions: Homo sapiens, U2OS;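 further: growth inhibition of human U-2-OS cells, determined with a cell viability assay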
Description: SANGER: Inhibition of human U-2-OS cell growth in a cell viability assay.

[2] = tested on: KOSC-2; format: functional, cell-based, Homo sapiens; conditions: Homo sapiens, KOSC-2;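 further: growth inhibition of KOSC-2 cells, read out by a cell viability assay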
Description: SANGER: Inhibition of human KOSC-2 cell growth in a cell viability assay.

[3] = tested on: MIA PaCa-2; format: functional, cell-based, Homo sapiens; conditions: Homo sapiens, MIA PaCa-2;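 further: growth inhibition of MIA PaCa-2 cells, read out with a cell viability assay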
Description: SANGER: Inhibition of human MIA-PaCa-2 cell growth in a cell viability assay.

[4] = tested on: NCI-H446; format: functional, cell-based; conditions: Homo sapiens;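 further: growth inhibition of NCI-H446 cells determined by a cell viability assay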
Description: SANGER: Inhibition of human NCI-H446 cell growth in a cell viability assay.

[5] = tested on: SW1573; format: functional, cell-based, Homo sapiens; conditions: Homo sapiens, SW1573;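 further: growth inhibition of SW1573 cells, read out with a cell viability assay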
Description: SANGER: Inhibition of human SW1573 cell growth in a cell viability assay.

[6] = tested on: MFM-223; format: functional, cell-based, Homo sapiens; conditions: Homo sapiens, MFM-223
Description: SANGER: Inhibition of human MFM-223 cell growth in a cell viability assay.

[7] = tested on: CAMA-1; format: functional, cell-based, Homo sapiens; conditions: Homo sapiens, CAMA-1;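 further: growth inhibition of CAMA-1 cells, read out with a cell viability assay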
Description: SANGER: Inhibition of human CAMA-1 cell growth in a cell viability assay.

[8] = tested on: NMC-G1; format: functional, cell-based, Homo sapiens; conditions: Homo sapiens, NMC-G1;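 further: growth inhibition of the NMC-G1 cell line, measured with a cell viability read-out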
Description: SANGER: Inhibition of human NMC-G1 cell growth in a cell viability assay.

[9] = tested on: EFM-19; format: functional, cell-based, Homo sapiens; conditions: Homo sapiens, EFM-19;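 further: growth inhibition of human EFM-19 cells, measured in a cell viability assay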
Description: SANGER: Inhibition of human EFM-19 cell growth in a cell viability assay.

[10] = tested on: A388; format: functional, cell-based, Homo sapiens; conditions: Homo sapiens, A388;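 further: growth inhibition of human A388 cells, read out with a cell viability assay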
Description: SANGER: Inhibition of human A388 cell growth in a cell viability assay.

[11] = tested on: KM-H2; format: functional, cell-based; conditions: Homo sapiens;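 further: growth inhibition of KM-H2 cells, read out by a cell viability assay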
Description: SANGER: Inhibition of human KM-H2 cell growth in a cell viability assay.

[12] = tested on: U-118-MG; format: functional, cell-based, Homo sapiens; conditions: Homo sapiens, U-118-MG
Description: SANGER: Inhibition of human U-118-MG cell growth in a cell viability assay.

[13] = tested on: A-431; format: functional, cell-based, Homo sapiens; conditions: Homo sapiens, A-431;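 further: growth inhibition of A-431 cells, determined with a cell viability read-out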
Description: SANGER: Inhibition of human A431 cell growth in a cell viability assay.

[14] = tested on: Ca9-22; format: functional, cell-based, Homo sapiens; conditions: Homo sapiens, Ca9-22;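 further: growth inhibition of Ca9-22 cells, read out with a cell viability assay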
Description: SANGER: Inhibition of human Ca9-22 cell growth in a cell viability assay.

[15] = tested on: NH-12; format: functional, cell-based, Homo sapiens; conditions: Homo sapiens, NH-12;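 further: growth inhibition of NH-12 cells, read out with a cell viability assay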
Description: SANGER: Inhibition of human NH-12 cell growth in a cell viability assay.

[16] = tested on: SK-N-AS; format: functional, cell-based, Homo sapiens; conditions: Homo sapiens, SK-N-AS;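 further: growth inhibition of human SK-N-AS cells, measured with a cell viability assay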
Description: SANGER: Inhibition of human SK-N-AS cell growth in a cell viability assay.

[17] = tested on: ME-180; format: functional, cell-based; conditions: Homo sapiens;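 further: cell viability assay measuring growth inhibition of ME-180 cells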
Description: SANGER: Inhibition of human ME-180 cell growth in a cell viability assay.

[18] = tested on: NCI-H1650; format: functional, cell-based, Homo sapiens; conditions: Homo sapiens, NCI-H1650;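 further: growth inhibition of human NCI-H1650 cells measured by a cell viability assay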
Description: SANGER: Inhibition of human NCI-H1650 cell growth in a cell viability assay.

[19] = tested on: MC-IXC; format: functional, cell-based, Homo sapiens; conditions: Homo sapiens, MC-IXC;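 further: growth inhibition of MC-IXC cells, read out with a cell viability assay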
Description: SANGER: Inhibition of human MC-IXC cell growth in a cell viability assay.

[20] = tested on: JVM-2; format: functional, cell-based; conditions: Homo sapiens;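 further: growth inhibition of JVM-2 cells determined by a cell viability assay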
Description: SANGER: Inhibition of human JVM-2 cell growth in a cell viability assay.

[21] = tested on: LC-2-ad; format: functional, cell-based, Homo sapiens; conditions: Homo sapiens, LC-2-ad;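 further: growth inhibition of human LC-2-ad cells, read out with a cell viability assay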
Description: SANGER: Inhibition of human LC-2-ad cell growth in a cell viability assay.

[22] = tested on: GP5d; format: functional, cell-based, Homo sapiens; conditions: Homo sapiens, GP5d;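 further: growth inhibition of human GP5d cells, read out with a cell viability assay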
Description: SANGER: Inhibition of human GP5d cell growth in a cell viability assay.

[23] = tested on: MDA-MB-453; format: functional, cell-based, Homo sapiens; conditions: Homo sapiens, MDA-MB-453
Description: SANGER: Inhibition of human MDA-MB-453 cell growth in a cell viability assay.

[24] = tested on: LCLC-97TM1; format: functional, cell-based, Homo sapiens; conditions: Homo sapiens, LCLC-97TM1;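 further: cell viability assay measuring growth inhibition of human LCLC-97TM1 cells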
Description: SANGER: Inhibition of human LCLC-97TM1 cell growth in a cell viability assay.

[25] = tested on: ES7; format: functional, cell-based, Homo sapiens; conditions: Homo sapiens, ES7;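 further: growth inhibition of cultured human ES7 cells, read out as cell viability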
Description: SANGER: Inhibition of human ES7 cell growth in a cell viability assay.

[26] = tested on: Calu-6; format: functional, cell-based, Homo sapiens; conditions: Homo sapiens, Calu-6;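 further: growth of human Calu-6 cells, read out by a cell viability assay, IC50 marking inhibition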
Description: SANGER: Inhibition of human Calu-6 cell growth in a cell viability assay.

[27] = tested on: KYSE-520 cell line; format: functional, cell-based, Homo sapiens; conditions: Homo sapiens, KYSE-520;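 further: growth inhibition of human KYSE-520 cells, read out with a viability assay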
Description: SANGER: Inhibition of human KYSE-520 cell growth in a cell viability assay.

[28] = tested on: A-375; format: functional, cell-based, Homo sapiens; conditions: Homo sapiens, A-375;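 further: growth inhibition of A375 cells, read out with a cell viability assay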
Description: SANGER: Inhibition of human A375 cell growth in a cell viability assay.

[29] = tested on: EFO-21; format: functional, cell-based, Homo sapiens; conditions: Homo sapiens, EFO-21;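 further: growth inhibition of EFO-21 cells measured with a viability assay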
Description: SANGER: Inhibition of human EFO-21 cell growth in a cell viability assay.

[30] = tested on: D-263MG; format: functional, cell-based, Homo sapiens; conditions: Homo sapiens, D-263MG
Description: SANGER: Inhibition of human D-263MG cell growth in a cell viability assay.

[31] = tested on: HCE-4; format: functional, cell-based, Homo sapiens; conditions: Homo sapiens, HCE-4;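 further: cell viability assay measuring inhibition of growth in the human HCE-4 cell line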
Description: SANGER: Inhibition of human HCE-4 cell growth in a cell viability assay.

[32] = tested on: GAMG; format: functional, cell-based, Homo sapiens; conditions: Homo sapiens, GAMG;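 further: cell growth inhibition measured by a viability assay in the GAMG human cell line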
Description: SANGER: Inhibition of human GAMG cell growth in a cell viability assay.

[33] = tested on: COLO-320-HSR; format: functional, cell-based; conditions: Homo sapiens;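 further: growth inhibition of COLO-320-HSR cells, determined with a cell viability assay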
Description: SANGER: Inhibition of human COLO-320-HSR cell growth in a cell viability assay.

[34] = tested on: A253 cell line; format: functional, cell-based, Homo sapiens; conditions: Homo sapiens, A253;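 further: growth inhibition of A253 cells, read out with a cell viability assay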
Description: SANGER: Inhibition of human A253 cell growth in a cell viability assay.

[35] = tested on: SK-N-DZ; format: functional, cell-based, Homo sapiens; conditions: Homo sapiens, SK-N-DZ;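 further: growth inhibition of the cancer cell line, read out through a viability assay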
Description: SANGER: Inhibition of human SK-N-DZ cell growth in a cell viability assay.

[36] = tested on: RPMI-2650; format: functional, cell-based, Homo sapiens; conditions: Homo sapiens, RPMI-2650
Description: SANGER: Inhibition of human RPMI-2650 cell growth in a cell viability assay.

[37] = tested on: SW1783; format: functional, cell-based; conditions: Homo sapiens;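 further: cell growth inhibition measured with a viability assay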
Description: SANGER: Inhibition of human SW1783 cell growth in a cell viability assay.

[38] = tested on: ONS-76; format: functional, cell-based, Homo sapiens; conditions: Homo sapiens, ONS-76;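 further: growth inhibition of human ONS-76 cells, read out with a cell viability assay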
Description: SANGER: Inhibition of human ONS-76 cell growth in a cell viability assay.

[39] = tested on: NCI-H720; format: functional, cell-based; conditions: Homo sapiens;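 further: growth inhibition of human NCI-H720 cells determined by a cell viability assay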
Description: SANGER: Inhibition of human NCI-H720 cell growth in a cell viability assay.

[40] = tested on: HSC-2; format: functional, cell-based, Homo sapiens; conditions: Homo sapiens, HSC-2;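 further: growth inhibition of human HSC-2 cells, read out by a cell viability assay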
Description: SANGER: Inhibition of human HSC-2 cell growth in a cell viability assay.

[41] = tested on: HuP-T4; format: functional, cell-based, Homo sapiens; conditions: Homo sapiens, HuP-T4;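 further: cell viability assay measuring how much HuP-T4 cell growth is inhibited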
Description: SANGER: Inhibition of human HuP-T4 cell growth in a cell viability assay.

[42] = tested on: GT3TKB; format: functional, cell-based, Homo sapiens; conditions: Homo sapiens, GT3TKB;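 further: growth inhibition of the cell line, read out with a cell viability assay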
Description: SANGER: Inhibition of human GT3TKB cell growth in a cell viability assay.

[43] = tested on: SW948; format: functional, cell-based, Homo sapiens; conditions: Homo sapiens, SW948;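 further: growth inhibition of SW948 cells, read out with a cell viability assay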
Description: SANGER: Inhibition of human SW948 cell growth in a cell viability assay.

[44] = tested on: HT-3; format: functional, cell-based, Homo sapiens; conditions: Homo sapiens, HT-3;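 further: growth inhibition measured with a cell viability readout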
Description: SANGER: Inhibition of human HT-3 cell growth in a cell viability assay.

[45] = tested on: MDA-MB-361; format: functional, cell-based, Homo sapiens; conditions: Homo sapiens, MDA-MB-361
[46] = tested on: HT-29; format: functional, cell-based, Homo sapiens; conditions: Homo sapiens, HT-29;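 further: growth inhibition of human HT-29 cells, read out by a cell viability assay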
Description: SANGER: Inhibition of human HT-29 cell growth in a cell viability assay.

[47] = tested on: OS-RC-2; format: functional, cell-based, Homo sapiens; conditions: Homo sapiens, OS-RC-2;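 further: growth inhibition of human OS-RC-2 cells, measured by a cell viability assay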
Description: SANGER: Inhibition of human OS-RC-2 cell growth in a cell viability assay.

[48] = tested on: TE-1; format: functional, cell-based, Homo sapiens; conditions: Homo sapiens, TE-1;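 further: growth inhibition of the human TE-1 cell line, read out with a cell viability assay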
Description: SANGER: Inhibition of human TE-1 cell growth in a cell viability assay.

[49] = tested on: SK-UT-1; format: functional, cell-based, Homo sapiens; conditions: Homo sapiens, SK-UT-1;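 further: growth inhibition of SK-UT-1 cells, measured by a cell viability assay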
Description: SANGER: Inhibition of human SK-UT-1 cell growth in a cell viability assay.

[50] = tested on: CP66-MEL; format: functional, cell-based, Homo sapiens; conditions: Homo sapiens, CP66-MEL;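 further: growth inhibition of CP66-MEL cells determined in a cell viability assay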
Description: SANGER: Inhibition of human CP66-MEL cell growth in a cell viability assay.

For `COc1ccc(-c2ccc3c(N4CCOC[C@@H]4C)nc(N4CCOC[C@@H]4C)nc3n2)cc1CO` [AZD-8055], the IC50 [1] was 0.76 µM, the IC50 [2] was 1.08 µM and the IC50 [3] was 0.929 µM. For the same molecule, the IC50 [4] was 1.33 µM, the IC50 [5] was 1.6 µM and the IC50 [6] was 0.426 µM. The IC50 [7] was 0.622 µM, the IC50 [8] was 1.31 µM and the IC50 [9] was 0.708 µM. The IC50 [10] was > 2 µM, the IC50 [11] was 1.56 µM and the IC50 [12] was 1.85 µM. It also gave an IC50 [13] of 0.831 µM, an IC50 [14] of 0.787 µM and an IC50 [15] of 1.11 µM. For the same molecule, the IC50 [16] was > 2 µM, the IC50 [17] was 0.147 µM and the IC50 [18] was > 2 µM. For the same molecule, the IC50 [19] was 0.727 µM, the IC50 [20] was > 2 µM and the IC50 [21] was 0.221 µM. The IC50 [22] was > 2 µM, the IC50 [23] was 1.16 µM and the IC50 [24] was 1.41 µM. For the same molecule, the IC50 [25] was 0.274 µM, the IC50 [26] was > 2 µM and the IC50 [27] was > 2 µM. The IC50 [28] was 0.752 µM, the IC50 [29] was > 2 µM and the IC50 [30] was 1.33 µM. The IC50 [31] was > 2 µM, the IC50 [32] was 0.557 µM and the IC50 [33] was > 2 µM. For the same molecule, the IC50 [34] was > 2 µM, the IC50 [35] was > 2 µM and the IC50 [36] was 1.68 µM. The IC50 [37] was > 2 µM, the IC50 [38] was > 2 µM and the IC50 [39] was 0.0294 µM. The IC50 [40] was 1.91 µM, the IC50 [41] was 1.49 µM and the IC50 [42] was > 2 µM. For the same molecule, the IC50 [43] was > 2 µM, the IC50 [44] was 1.66 µM and the IC50 [45] was 0.509 µM. For the same molecule, the IC50 [46] was > 2 µM, the IC50 [47] was 1.08 µM and the IC50 [48] was > 2 µM.

For `O=c1cc(-c2cccc3c2Sc2ccccc2S3)oc(N2CCOCC2)c1` [KU-55933], the IC50 [1] was > 10 µM, the IC50 [49] was > 10 µM and the IC50 [2] was > 10 µM. The IC50 [3] was > 10 µM, the IC50 [4] was > 10 µM and the IC50 [5] was > 10 µM. For the same molecule, the IC50 [6] was > 10 µM, the IC50 [7] was > 10 µM and the IC50 [8] was > 10 µM. For the same molecule, the IC50 [9] was > 10 µM, the IC50 [10] was > 10 µM and the IC50 [11] was > 10 µM. The IC50 [12] was > 10 µM, the IC50 [13] was > 10 µM and the IC50 [14] was > 10 µM. For the same molecule, the IC50 [15] was > 10 µM, the IC50 [16] was > 10 µM and the IC50 [17] was > 10 µM. For the same molecule, the IC50 [18] was > 10 µM, the IC50 [19] was > 10 µM and the IC50 [21] was > 10 µM. The IC50 [22] was > 10 µM, the IC50 [23] was > 10 µM and the IC50 [50] was > 10 µM. The IC50 [24] was > 10 µM, the IC50 [25] was > 10 µM and the IC50 [26] was > 10 µM. The IC50 [27] was > 10 µM, the IC50 [28] was > 10 µM and the IC50 [29] was > 10 µM. For the same molecule, the IC50 [30] was > 10 µM, the IC50 [31] was > 10 µM and the IC50 [32] was > 10 µM. The IC50 [33] was > 10 µM, the IC50 [34] was > 10 µM and the IC50 [35] was > 10 µM. The IC50 [36] was > 10 µM, the IC50 [37] was > 10 µM and the IC50 [38] was > 10 µM. For the same molecule, the IC50 [40] was > 10 µM, the IC50 [41] was > 10 µM and the IC50 [42] was > 10 µM. The IC50 [43] was > 10 µM, the IC50 [44] was > 10 µM and the IC50 [45] was > 10 µM. The IC50 [46] was > 10 µM, the IC50 [47] was > 10 µM and the IC50 [48] was > 10 µM.

`COc1ccc(C2=N[C@@H](c3ccc(Cl)cc3)[C@@H](c3ccc(Cl)cc3)N2C(=O)N2CCNC(=O)C2)c(OC(C)C)c1` [NUTLIN-3] was tested, and the IC50 [1] was 2.91 µM, the IC50 [49] was > 8 µM and the IC50 [2] was > 8 µM. The IC50 [3] was > 8 µM, the IC50 [4] was > 8 µM and the IC50 [5] was > 8 µM. For the same molecule, the IC50 [6] was > 8 µM, the IC50 [7] was > 8 µM and the IC50 [8] was > 8 µM. The IC50 [9] was > 8 µM, the IC50 [10] was > 8 µM and the IC50 [11] was 7.89 µM. The IC50 [12] was > 8 µM, the IC50 [13] was > 8 µM and the IC50 [14] was > 8 µM. The IC50 [15] was 4.02 µM, the IC50 [16] was > 8 µM and the IC50 [17] was > 8 µM. The IC50 [18] was 7.39 µM, the IC50 [19] was > 8 µM and the IC50 [20] was > 8 µM. For the same molecule, the IC50 [21] was > 8 µM, the IC50 [22] was > 8 µM and the IC50 [23] was > 8 µM. The IC50 [24] was > 8 µM, the IC50 [25] was > 8 µM and the IC50 [26] was > 8 µM. The IC50 [27] was > 8 µM, the IC50 [28] was 4.34 µM and the IC50 [29] was > 8 µM. The IC50 [30] was > 8 µM, the IC50 [31] was > 8 µM and the IC50 [32] was > 8 µM. The IC50 [33] was > 8 µM, the IC50 [34] was > 8 µM and the IC50 [35] was > 8 µM. The IC50 [36] was 7.94 µM, the IC50 [37] was > 8 µM and the IC50 [38] was 5.57 µM. The IC50 [39] was > 8 µM, the IC50 [40] was > 8 µM and the IC50 [41] was > 8 µM. For the same molecule, the IC50 [42] was > 8 µM, the IC50 [43] was > 8 µM and the IC50 [44] was > 8 µM. The IC50 [45] was > 8 µM, the IC50 [46] was > 8 µM and the IC50 [47] was 5.74 µM. The IC50 [48] was > 8 µM.
